In publication PMC11107383, “Integrating Reinforcement Learning and Monte Carlo Tree Search for enhanced neoantigen vaccine design” (Briefings in Bioinformatics, 2024):
pIC50: −log10 of the molar value. “Also recorded” adds a separate entry of the source. Ends that are not written are not given here.

How the values were obtained:
HLA-A^*11:01 [1] = biological target: T1, HLA-A^*11:01 (Homo sapiens, UniProt P04439, A114D/D185E/E176A/F33Y/L180Q/S129P/T187R); experiment: Peptide competitive binding assay (FITC-labeled reference peptide KVFPKALINK, flow cytometry) in HMy2.CIR cells expressing HLA-A^*11:01; conditions: 24 h, 4°C; for shift in the fluorescence (flow cytometry): FITC-labeled reference peptide displaced; for 5 μM Inhibition (%): competitor 5 μM
T-cell responses = conditions: IFN-γ ELISPOT; HLA-A^*11:01 pair; cited from earlier work
Description: (§1) A peptide sequence, ELQRREVYK, originating from the E6 oncoprotein of HPV type 52, has been recognized as an HLA-A^*11:01-restricted peptide through an in vitro peptide-binding assay. […] Considering the high prevalence of HLA-A^*11:01 allele (21.143%) in the Chinese pop ...

HLA-A^*11:01 [2] = biological target: T1, HLA-A^*11:01; conditions: in vitro peptide-binding assay; cited from earlier work
Description: as §1

[3] = FITC-labeled reference peptide KVFPKALINK 300 nM, flow cytometry

Question: What does the source list for ALQRREVYK [ALQRREVYK]?
Answer: shift in the fluorescence (flow cytometry) (HLA-A^*11:01 [1]): leftward shift in the fluorescence intensity; shift in the fluorescence (flow cytometry) (HLA-A^*11:01 [1]; listed as mutated peptide): leftward shift in the fluorescence peak; pIC50 (HLA-A^*11:01 [1]; bracketed from 5 and 15 μM inhibition): 4.82 to 5.30; 5 μM Inhibition (%) (HLA-A^*11:01 [1]; [3]): 44.83%; 15 μM Inhibition (%) (HLA-A^*11:01 [1]; competitor 15 μM, FITC-labeled reference peptide KVFPKALINK 300 nM, flow cytometry): 77.55%

Question: With “ELQRREVYK [peptide originating from the E6 oncoprotein of HPV type 52]” as the sequence, how does the “shift in the fluorescence (flow cytometry)” value (HLA-A^*11:01 [1]) read?
Answer: The value was “does not exhibit a discernible shift; also recorded: no discernible shift”.

Question: What about the “5 μM Inhibition (%)” value (HLA-A^*11:01 [1]; [3]) of the same sequence?
Answer: Its value is 24.21%.

Question: What about the T-cell response (T-cell responses) of the same sequence?
Answer: Its T-cell response is “does not elicit positive T-cell responses”.

Question: And the HLA restriction (HLA-A^*11:01 [2])?
Answer: The HLA restriction was “HLA-A^*11:01-restricted”.
